Experimental data: patent US11912693B2, “Compounds for modulating S1P1 activity and methods of using the same” (TREVENA, INC., priority 2017, dated 2024)

Columns and labels:
[1] = system: paclitaxel induced peripheral neuropathy; test: Reversal of allodynia induced by paclitaxel in mice (s.c. or p.o., von Frey frequency method); format: in vivo, c57bl/6 mice; conditions: Mus musculus; for inhibition in vivo at 3 mg/kg: po, 1 h, 3 mg/kg p.o., tested 60 min after dosing, read-out: Screen @ 3 mg/kg po (% MPE); for inhibition in vivo at 1 mg/kg: sc, 0.5 h, 1 mg/kg s.c., tested 30 min after dosing, read-out: Screen @ 1 mg/kg sc (% MPE)
Method in brief: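 Neuropathy was induced in mice by paclitaxel (6 mg/kg i.p., days 1, 3, 5, 7) or oxaliplatin (4 mg/kg i.p., days 1-5), with re-testing about 14 days later. Compounds were given s.c. (tested at 30 min) or p.o. (tested at 60 min; paclitaxel only). A 0.4 g von Frey filament was applied ten times per paw, and % non-response was converted to % MPE.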

[2] = biological target: human sphingosine-1-phosphate receptor 3 (S1P3) (Homo sapiens (Human), UniProt Q99500); test: Inhibition of cAMP production (HTRF), S1P3 CHO-K1 cells; format: cell-based; conditions: for Emax: CHO-K1, efficacy normalized to fingolimod, read-out: hS1P3 cAMP SPAN; for hS1P3 cAMP pEC50: inhibition of cAMP production
human sphingosine-1-phosphate receptor 3 (S1P3), sequence (Q99500 whole entry): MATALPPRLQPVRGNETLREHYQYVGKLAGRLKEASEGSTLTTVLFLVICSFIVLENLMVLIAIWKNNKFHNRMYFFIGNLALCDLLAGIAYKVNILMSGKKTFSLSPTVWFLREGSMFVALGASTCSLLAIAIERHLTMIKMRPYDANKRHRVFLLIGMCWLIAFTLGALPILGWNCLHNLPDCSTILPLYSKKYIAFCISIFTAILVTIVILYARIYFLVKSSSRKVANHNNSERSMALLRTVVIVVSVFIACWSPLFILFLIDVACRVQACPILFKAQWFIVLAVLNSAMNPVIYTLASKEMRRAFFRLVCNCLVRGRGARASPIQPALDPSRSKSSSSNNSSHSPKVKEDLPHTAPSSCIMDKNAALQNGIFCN

[3] = system: peripheral blood lymphocytes; test: Peripheral blood lymphocytes (lymphopenia) in c57bl/6 mice, acute and chronic studies; format: in vivo; conditions: 6 mg/kg sc, 7 days; for Lymphopenia: Effect and Doses, mg/kg, sc: peripheral blood lymphocytes vs vehicle
Method in brief: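 Mice dosed subcutaneously: acute, single 3 mg/kg (n=5/group), blood taken at set time points; chronic, seven days in dose response (up to 3 mg/kg) or screening at 6 mg/kg (n=6-8/group), blood taken 45 min after final dose. Lymphocyte counts (10^3 cells/μl) by haematology analyser, compared with vehicle.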

[4] = biological target: sphingosine-1-phosphate receptor 5 (S1P5) (Homo sapiens (Human), UniProt Q9H228); test: Inhibition of cAMP production (HTRF), S1P5 CHO-K1 cells; format: cell-based; conditions: for hS1P5 cAMP pEC50: inhibition of cAMP production; for Emax: CHO-K1, efficacy normalized to fingolimod, read-out: hS1P5 cAMP SPAN
sphingosine-1-phosphate receptor 5 (S1P5), sequence (Q9H228 whole entry): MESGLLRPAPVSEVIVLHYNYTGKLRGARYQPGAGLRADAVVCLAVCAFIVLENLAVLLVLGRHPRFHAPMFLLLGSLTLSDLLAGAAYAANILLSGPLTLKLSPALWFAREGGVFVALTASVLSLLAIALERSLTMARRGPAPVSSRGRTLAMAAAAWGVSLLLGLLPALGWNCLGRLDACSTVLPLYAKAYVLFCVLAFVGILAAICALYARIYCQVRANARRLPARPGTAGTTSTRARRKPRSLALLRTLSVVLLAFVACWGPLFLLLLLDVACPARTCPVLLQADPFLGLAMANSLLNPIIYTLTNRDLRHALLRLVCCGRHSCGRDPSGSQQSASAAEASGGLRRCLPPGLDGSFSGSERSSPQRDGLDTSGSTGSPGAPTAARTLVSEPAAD

Row | Lymphopenia: Effect and Doses, mg/kg, sc (change in peripheral blood lymphocytes) ([3]; significance vs vehicle given) | SMILES | inhibition in vivo at 3 mg/kg [1] | Emax [2] | hS1P3 cAMP pEC50 [2] | Lymphopenia: Effect and Doses, mg/kg, sc [3] | inhibition in vivo at 1 mg/kg [1] | hS1P5 cAMP pEC50 [4] | Emax [4]
1 |  | CC(C)n1nnc2cc(-c3nc(-c4ccncc4C(F)(F)F)no3)ccc21 [Compound 455, 1-(propan-2-yl)-5-{3-[3-(trifluoromethyl)pyridin-4-yl]-1,2,4-oxadiazol-5-yl}-1H-1,2,3-benzotriazole] | > 50% | < 50% | <5.0 | no change: 6 mg/kg, 7 days |  |  | 
2 |  | COc1ccccc1-c1nc(-c2ccc3c(c2)nnn3C(C)C)no1 [Compound 287, 3-(1-isopropyl-1H-benzo[d][1,2,3]triazol-5-yl)-5-(2-methoxyphenyl)-1,2,4-oxadiazole] |  |  | <5.0 | no change: 6 mg/kg, 7 days | < 50% | <5.0 | 
3 |  | Cc1ccccc1-c1noc(-c2ccc3c(c2)nnn3C(C)C)n1 [Compound 293, 5-[3-(2-methylphenyl)-1,2,4-oxadiazol-5-yl]-1-(propan-2-yl)-1H-1,2,3-benzotriazole] |  | < 50% | <5.0 | no change: 6 mg/kg, 7 days | > 50% | <5.0 | > 50%
4 |  | CC(C)n1nnc2cc(-c3nc(-c4cccc5c4OCCC5)no3)ccc21 [Compound 304, 3-chroman-8-yl-5-(1-isopropylbenzotriazol-5-yl)-1,2,4-oxadiazole] |  |  | >5.0 | no change: 6 mg/kg, 7 days | > 50% | <5.0 | 
5 | −28% not stat sig: 6 mg/kg, 7 days | CCC1(CC)CC(=O)c2cc(-c3nc(-c4cn[nH]c4)no3)ccc2O1 [Compound 469, 6-(3-(1H-pyrazol-4-yl)-1,2,4-oxadiazol-5-yl)-2,2-diethylchroman-4-one] | > 50% |  |  |  |  |  | 
6 |  | COc1ccc(-c2noc(-c3ccc4c(c3)nnn4CC(C)(C)O)n2)c(C)c1 [Compound 26, 1-{5-[3-(4-methoxy-2-methylphenyl)-1,2,4-oxadiazol-5-yl]-1H-1,2,3-benzotriazol-1-yl}-2-methylpropan-2-ol] | < 50% |  | <5.0 |  | < 50% | <5.0 | 
7 |  | CCC1(CC)CC(=O)c2cc(-c3nc(-c4ccncc4OC)no3)ccc2O1 [Compound 212, 2,2-diethyl-6-(3-(3-methoxypyridin-4-yl)-1,2,4-oxadiazol-5-yl)chroman-4-one] |  | < 50% | <5.0 |  | > 50% | <5.0 | < 50%
8 |  | CCC1(CC)CC(=O)c2cc(-c3nc(-c4cccnc4OC)no3)ccc2O1 [Compound 147, 2,2-diethyl-6-(3-(2-methoxypyridin-3-yl)-1,2,4-oxadiazol-5-yl)chroman-4-one] |  | < 50% | <5.0 | no change: 6 mg/kg, 7 days | > 50% | >5.0 | < 50%
9 |  | Cc1ccccc1-c1nc(-c2ccc3c(c2)nnn3C(C)C)no1 [Compound 99, 3-(1-isopropyl-1H-benzo[d][1,2,3]triazol-5-yl)-5-(o-tolyl)-1,2,4-oxadiazole] | > 50% |  | <5.0 | no change: 6 mg/kg, 7 days | > 50% | <5.0 | 
10 |  | CCC1(CC)CC(=O)c2cc(-c3nc(-c4cccnc4)no3)ccc2O1 [Compound 103, 2,2-diethyl-6-[3-(pyridin-3-yl)-1,2,4-oxadiazol-5-yl]-3,4-dihydro-2H-1-benzopyran-4-one] | > 50% | < 50% | <5.0 | no change: 6 mg/kg, 7 days | > 50% | <5.0 | < 50%
